Tests used:
ABUTH (Velvetleaf) [1] = experiment: Postemergence herbicidal evaluation; type: in vivo, Abutilon theophrasti; settings: postemergence
Outline: (§1)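 Two-week-old seedlings sprayed with compound in 50/50 acetone/water plus 0.5% TWEEN 20, at about 0.0156 to 0.500 kg/ha, nozzle at 40 psi. Kept in greenhouse; rated visually 4-5 weeks after treatment on a 0-9 scale versus control, repeat tests averaged.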

AMBEL (Ragweed, Common) = experiment: Postemergence herbicidal evaluation; type: in vivo, Ambrosia artemisifolia; settings: postemergence
Outline: as §1

ECHCG (Barnyardgrass) = experiment: Postemergence herbicidal evaluation; type: in vivo, Echinochloa crus-galli; settings: postemergence
Outline: as §1

SETVI (Foxtail, Green) [2] = experiment: Postemergence herbicidal evaluation; type: in vivo, Setaria viridis; settings: postemergence
Outline: as §1

ORYSAT (Rice, Tebonnet) = experiment: Postemergence herbicidal evaluation; type: in vivo, Oryza sativa, (L.) Tebonnet; settings: postemergence
Outline: as §1

[3] = tested on: TRZAWR (Wheat, Winter, cv Riband); experiment: Postemergence herbicidal evaluation; type: in vivo, Triticum aestivum; settings: postemergence
Outline: as §1

ABUTH (Velvetleaf) [4] = experiment: Preemergence herbicidal evaluation; type: in vivo, Abutilon theophrasti; settings: rated 4-5 weeks after treatment; for ABUTH rating: preemergence, 0-9 scale
Outline: (§2)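 Scores use a 0–9 visual scale covering stand, vigor, malformation, size and chlorosis relative to controls, rated four to five weeks after treatment. Before emergence, soil-planted seeds were sprayed with compound in aqueous acetone at roughly 0.0156–0.500 kg/ha and held in the greenhouse.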

CASOB (Sicklepod) = experiment: Preemergence herbicidal evaluation; type: in vivo, Cassia obtusifolia; settings: rated 4-5 weeks after treatment; for CASOB rating: preemergence, 0-9 scale
Outline: as §2

SETVI (Foxtail, Green) [5] = experiment: Preemergence herbicidal evaluation; type: in vivo, Setaria viridis; settings: rated 4-5 weeks after treatment; for SETVI rating: preemergence, 0-9 scale
Outline: as §2

MOOVA (Monochoria) = experiment: Preemergence weed control under flooded paddy conditions; type: in vivo, Monochoria vaginalis; settings: rated 3-4 weeks after treatment
Outline: (§3)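 Seeds or propagules sown in silt loam kept flooded 1.5-3 cm; compounds in 50/50 acetone/water pipetted into flood water at about 0.0313 to 0.500 kg/ha. Greenhouse; visual 0-9 rating versus untreated control 3-4 weeks after treatment.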

[6] = tested on: SAGPY (Arrowhead (Pygmaea)); experiment: as above; type: in vivo, Sagittaria pygmaea; settings: rated 3-4 weeks after treatment
Outline: as §3

CYPIR (Rice Flatsedge) = experiment: Postemergence weed control under flooded paddy conditions; type: in vivo, Cyperus iria; settings: postemergence weeds
Outline: (§4)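 Herbicidal effect is judged by eye on a 0–9 scale versus control, 3–4 weeks after dosing. Dosing is into flood water kept 1.5–3 cm over the soil, at about 0.0313–0.500 kg/ha in aqueous/acetone 50/50 v/v, on 3–5 cm weeds and 1.5–2.5-leaf rice seedlings.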

[7] = tested on: SAGPY (Arrowhead (Pygmaea)); experiment: as above; type: in vivo, Sagittaria pygmaea; settings: postemergence weeds, 3-4 weeks after treatment
Outline: as §4

[8] = tested on: GLXMAW (Soybean, Williams); experiment: Postemergence herbicidal evaluation; type: in vivo, Glycine max, (L.) Merr. cv Williams; settings: postemergence
Outline: as §1

CN1C(=O)C(F)SC1=Nc1cc(N2C(=O)C3=C(CCCC3)C2=O)c(F)cc1Cl (stereo not drawn) [Compound 5, N-{4-chloro-2-fluoro-5-[(5-fluoro-3-methyl-4-oxo-2-thiazolidinylidene)amino]phenyl}-1-cyclohexene-1,2-dicarboximide]
ABUTH herbicidal rating (ABUTH (Velvetleaf) [1]; rate 0.0157 kg/ha): 1.0
ABUTH herbicidal rating (ABUTH (Velvetleaf) [1]; rate 0.0313 kg/ha): 2.0
ABUTH herbicidal rating (ABUTH (Velvetleaf) [1]; rate 0.0625 kg/ha): 9.0
ABUTH herbicidal rating (ABUTH (Velvetleaf) [1]; rate 0.1250 kg/ha): 9.0
ABUTH herbicidal rating (ABUTH (Velvetleaf) [1]; rate 0.2500 kg/ha): 9.0
ABUTH herbicidal rating (ABUTH (Velvetleaf) [1]; rate 0.5000 kg/ha): 9.0
AMBEL herbicidal rating (AMBEL (Ragweed, Common); rate 0.0157 kg/ha): 0.0
AMBEL herbicidal rating (AMBEL (Ragweed, Common); rate 0.0313 kg/ha): 0.0
AMBEL herbicidal rating (AMBEL (Ragweed, Common); rate 0.0625 kg/ha): 0.0
AMBEL herbicidal rating (AMBEL (Ragweed, Common); rate 0.1250 kg/ha): 0.0
AMBEL herbicidal rating (AMBEL (Ragweed, Common); rate 0.2500 kg/ha): 2.0
AMBEL herbicidal rating (AMBEL (Ragweed, Common); rate 0.5000 kg/ha): 9.0
ECHCG herbicidal rating (ECHCG (Barnyardgrass); rate 0.0157 kg/ha): 0.0
ECHCG herbicidal rating (ECHCG (Barnyardgrass); rate 0.0313 kg/ha): 0.0
ECHCG herbicidal rating (ECHCG (Barnyardgrass); rate 0.0625 kg/ha): 0.0
ECHCG herbicidal rating (ECHCG (Barnyardgrass); rate 0.1250 kg/ha): 3.0
ECHCG herbicidal rating (ECHCG (Barnyardgrass); rate 0.2500 kg/ha): 4.0
ECHCG herbicidal rating (ECHCG (Barnyardgrass); rate 0.5000 kg/ha): 2.0
SETVI herbicidal rating (SETVI (Foxtail, Green) [2]; rate 0.0157 kg/ha): 0.0
SETVI herbicidal rating (SETVI (Foxtail, Green) [2]; rate 0.0313 kg/ha): 0.0
SETVI herbicidal rating (SETVI (Foxtail, Green) [2]; rate 0.0625 kg/ha): 2.0
SETVI herbicidal rating (SETVI (Foxtail, Green) [2]; rate 0.1250 kg/ha): 4.0
SETVI herbicidal rating (SETVI (Foxtail, Green) [2]; rate 0.2500 kg/ha): 8.0
SETVI herbicidal rating (SETVI (Foxtail, Green) [2]; rate 0.5000 kg/ha): 4.0
ORYSAT herbicidal rating (ORYSAT (Rice, Tebonnet); rate 0.0157 kg/ha): 1.5
ORYSAT herbicidal rating (ORYSAT (Rice, Tebonnet); rate 0.0313 kg/ha): 1.5
ORYSAT herbicidal rating (ORYSAT (Rice, Tebonnet); rate 0.0625 kg/ha): 2.5
ORYSAT herbicidal rating (ORYSAT (Rice, Tebonnet); rate 0.1250 kg/ha): 2.5
ORYSAT herbicidal rating (ORYSAT (Rice, Tebonnet); rate 0.2500 kg/ha): 2.5
ORYSAT herbicidal rating (ORYSAT (Rice, Tebonnet); rate 0.5000 kg/ha): 2.5
TRZAWR herbicidal rating ([3]; rate 0.0157 kg/ha): 3.0
TRZAWR herbicidal rating ([3]; rate 0.0313 kg/ha): 3.0
TRZAWR herbicidal rating ([3]; rate 0.0625 kg/ha): 3.5
TRZAWR herbicidal rating ([3]; rate 0.1250 kg/ha): 4.5
TRZAWR herbicidal rating ([3]; rate 0.2500 kg/ha): 5.0
TRZAWR herbicidal rating ([3]; rate 0.5000 kg/ha): 4.5
ABUTH preemergence herbicidal rating (ABUTH (Velvetleaf) [4]; rate 0.0625 kg/ha): 0.0
ABUTH preemergence herbicidal rating (ABUTH (Velvetleaf) [4]; rate 0.1250 kg/ha): 0.0
ABUTH preemergence herbicidal rating (ABUTH (Velvetleaf) [4]; rate 0.2500 kg/ha): 0.0
ABUTH preemergence herbicidal rating (ABUTH (Velvetleaf) [4]; rate 0.5000 kg/ha): 0.0
CASOB preemergence herbicidal rating (CASOB (Sicklepod); rate 0.0625 kg/ha): 0.0
CASOB preemergence herbicidal rating (CASOB (Sicklepod); rate 0.1250 kg/ha): 0.0
CASOB preemergence herbicidal rating (CASOB (Sicklepod); rate 0.2500 kg/ha): 0.0
CASOB preemergence herbicidal rating (CASOB (Sicklepod); rate 0.5000 kg/ha): 0.0
SETVI preemergence herbicidal rating (SETVI (Foxtail, Green) [5]; rate 0.0625 kg/ha): 0.0
SETVI preemergence herbicidal rating (SETVI (Foxtail, Green) [5]; rate 0.1250 kg/ha): 2.0
SETVI preemergence herbicidal rating (SETVI (Foxtail, Green) [5]; rate 0.2500 kg/ha): 6.0
SETVI preemergence herbicidal rating (SETVI (Foxtail, Green) [5]; rate 0.5000 kg/ha): 9.0
Herbicidal rating MOOVA (MOOVA (Monochoria); 0.1250 kg/ha): 2.0
Herbicidal rating MOOVA (MOOVA (Monochoria); 0.2500 kg/ha): 4.0
Herbicidal rating MOOVA (MOOVA (Monochoria); 0.5000 kg/ha): 8.0
Herbicidal rating SAGPY ([6]; 0.1250 kg/ha): 0.0
Herbicidal rating SAGPY ([6]; 0.2500 kg/ha): 0.0
Herbicidal rating SAGPY ([6]; 0.5000 kg/ha): 0.0
Herbicidal rating CYPIR (CYPIR (Rice Flatsedge); rate 0.1250 kg/ha, 3-4 weeks after treatment): 0.0
Herbicidal rating CYPIR (CYPIR (Rice Flatsedge); rate 0.2500 kg/ha, 3-4 weeks after treatment): 0.0
Herbicidal rating CYPIR (CYPIR (Rice Flatsedge); rate 0.5000 kg/ha, 3-4 weeks after treatment): 0.0
Herbicidal rating SAGPY ([7]; rate 0.1250 kg/ha): 0.0
Herbicidal rating SAGPY ([7]; rate 0.2500 kg/ha): 0.0
Herbicidal rating SAGPY ([7]; rate 0.5000 kg/ha): 0.0

CN1C(=O)C(CC(=O)NS(C)(=O)=O)SC1=Nc1cc(-n2c(=O)cc(C(F)(F)F)n(C)c2=O)c(F)cc1Cl (stereo not drawn) [Compound 97, 2-{{2-Chloro-5-[3,6-dihydro-3-methyl-2,6-dioxo-4-(trifluoromethyl)-1(2H)-pyrimidinyl]-4-fluorophenyl}imino}-3-methyl-N-(methylsulfonyl)-4-oxo-5-thiazolidineacetamide]
ABUTH herbicidal rating (ABUTH (Velvetleaf) [1]; rate 0.0156 kg/ha): 4.0
ABUTH herbicidal rating (ABUTH (Velvetleaf) [1]; rate 0.0313 kg/ha): 4.0
ABUTH herbicidal rating (ABUTH (Velvetleaf) [1]; rate 0.0625 kg/ha): 7.0
ABUTH herbicidal rating (ABUTH (Velvetleaf) [1]; rate 0.1250 kg/ha): 9.0
AMBEL herbicidal rating (AMBEL (Ragweed, Common); rate 0.0156 kg/ha): 0.0
AMBEL herbicidal rating (AMBEL (Ragweed, Common); rate 0.0313 kg/ha): 1.0
AMBEL herbicidal rating (AMBEL (Ragweed, Common); rate 0.0625 kg/ha): 4.0
AMBEL herbicidal rating (AMBEL (Ragweed, Common); rate 0.1250 kg/ha): 7.0
ECHCG herbicidal rating (ECHCG (Barnyardgrass); rate 0.0156 kg/ha): 1.0
ECHCG herbicidal rating (ECHCG (Barnyardgrass); rate 0.0313 kg/ha): 1.0
ECHCG herbicidal rating (ECHCG (Barnyardgrass); rate 0.0625 kg/ha): 3.0
ECHCG herbicidal rating (ECHCG (Barnyardgrass); rate 0.1250 kg/ha): 6.0
SETVI herbicidal rating (SETVI (Foxtail, Green) [2]; rate 0.0156 kg/ha): 1.0
SETVI herbicidal rating (SETVI (Foxtail, Green) [2]; rate 0.0313 kg/ha): 6.0
SETVI herbicidal rating (SETVI (Foxtail, Green) [2]; rate 0.0625 kg/ha): 9.0
SETVI herbicidal rating (SETVI (Foxtail, Green) [2]; rate 0.1250 kg/ha): 9.0
GLXMAW herbicidal rating ([8]; rate 0.0156 kg/ha): 4.5
GLXMAW herbicidal rating ([8]; rate 0.0313 kg/ha): 4.0
GLXMAW herbicidal rating ([8]; rate 0.0625 kg/ha): 5.5
GLXMAW herbicidal rating ([8]; rate 0.1250 kg/ha): 6.5
ORYSAT herbicidal rating (ORYSAT (Rice, Tebonnet); rate 0.0156 kg/ha): 0.5
ORYSAT herbicidal rating (ORYSAT (Rice, Tebonnet); rate 0.0313 kg/ha): 0.5
ORYSAT herbicidal rating (ORYSAT (Rice, Tebonnet); rate 0.0625 kg/ha): 2.5
ORYSAT herbicidal rating (ORYSAT (Rice, Tebonnet); rate 0.1250 kg/ha): 3.0
TRZAWR herbicidal rating ([3]; rate 0.0156 kg/ha): 1.0
TRZAWR herbicidal rating ([3]; rate 0.0313 kg/ha): 1.5
TRZAWR herbicidal rating ([3]; rate 0.0625 kg/ha): 2.5
TRZAWR herbicidal rating ([3]; rate 0.1250 kg/ha): 4.0
ABUTH rating (ABUTH (Velvetleaf) [4]; 0.1250 kg/ha): 4.0
ABUTH rating (ABUTH (Velvetleaf) [4]; 0.2500 kg/ha): 9.0
ABUTH rating (ABUTH (Velvetleaf) [4]; 0.5000 kg/ha): 9.0
CASOB rating (CASOB (Sicklepod); 0.1250 kg/ha): 0.0
CASOB rating (CASOB (Sicklepod); 0.2500 kg/ha): 1.0
CASOB rating (CASOB (Sicklepod); 0.5000 kg/ha): 3.0
SETVI rating (SETVI (Foxtail, Green) [5]; 0.1250 kg/ha): 0.0
SETVI rating (SETVI (Foxtail, Green) [5]; 0.2500 kg/ha): 1.0
SETVI rating (SETVI (Foxtail, Green) [5]; 0.5000 kg/ha): 7.0
MOOVA herbicidal effect rating (MOOVA (Monochoria); 0.0313 kg/ha): 9.0
MOOVA herbicidal effect rating (MOOVA (Monochoria); 0.0625 kg/ha): 9.0
MOOVA herbicidal effect rating (MOOVA (Monochoria); 0.1250 kg/ha): 9.0
MOOVA herbicidal effect rating (MOOVA (Monochoria); 0.2500 kg/ha): 9.0
Herbicidal rating CYPIR (CYPIR (Rice Flatsedge); Rate 0.0313 kg/ha, rated 3 to 4 weeks after treatment): 0.0
Herbicidal rating CYPIR (CYPIR (Rice Flatsedge); Rate 0.0625 kg/ha, rated 3 to 4 weeks after treatment): 0.0
Herbicidal rating CYPIR (CYPIR (Rice Flatsedge); Rate 0.1250 kg/ha, rated 3 to 4 weeks after treatment): 3.0
Herbicidal rating CYPIR (CYPIR (Rice Flatsedge); Rate 0.2500 kg/ha, rated 3 to 4 weeks after treatment): 4.0

Source: patent US20020137929A1, “1 - (3-heterocyclylphenyl) isothiourea, -isourea, -guanidine and -amidine herbicidal agents” (Intellectual Property Department, BASF Aktiengesellschaft, priority 1998, published 2002)
